Data published in paper PMC9306752, “Sandacrabins – Structurally Unique Antiviral RNA Polymerase Inhibitors from a Rare Myxobacterium” (Chemistry (Weinheim an Der Bergstrasse, Germany), 2022).
Values after ≈ are worked out from the molar mass of the structure shown. Read-outs that look alike come from different tables or passages of the source.

How the values were obtained:
[1] = system: Mycobacterium smegmatis mc2 155; experiment: Antimicrobial MIC determination, serial dilution in 96 well plates; format: cell-based; conditions: Mycolicibacterium smegmatis, MC2155
[2] = system: Escherichia coli BW25113; experiment: as above; format: cell-based; conditions: 24 h at 37 °C
[3] = system: Acyrthosiphon pisum; experiment: Insecticidal activity, direct application to the posterior segment of adult insects; format: in vivo; conditions: for Death rate at 0.5 μg/insect: adult A. pisum, 0.5 μg/insect in acetone, survival after one hour; for Death rate at 0.5 μg/insect / Death rate: 20 insects; for Death rate: positive control, 0.5 microliter of 0.01 μg/mL in acetone, after one hour
[4] = target: SARS-CoV-2 RdRp complex (Nsp7, Nsp8, Nsp12) (Severe acute respiratory syndrome coronavirus 2, UniProt P0DTD1); experiment: biochemical; conditions: full template-length RNA product
[5] = system: Huh 7.5 cells; experiment: MTT assay, non-infected cells; format: cell-based; conditions: Homo sapiens, Huh7.5, 120 h
[6] = system: Bacillus subtilis DSM-10; experiment: Antimicrobial MIC determination, serial dilution in 96 well plates; format: cell-based
[7] = system: HCoV229E; experiment: cells; format: cell-based, human pathogenic coronavirus HCoV229E; conditions: for IC50: HCoV229E replication in Huh-7.5 cells; for factor between cytotoxic activity (IC50 Huh-7.5) and antiviral activity (IC50 HCoV229E): IC50 Huh-7.5 versus IC50 HCoV229E
[8] = system: Pseudomonas aeruginosa PA14; experiment: Antimicrobial MIC determination, serial dilution in 96 well plates; format: cell-based; conditions: 24 h at 37 °C
[9] = system: Candida albicans DSM-1665; experiment: as above; format: cell-based; conditions: DSM1665
[10] = system: Escherichia coli ΔacrB JW0451-2; experiment: as above; format: cell-based; conditions: 24 h
[11] = system: U-2 OS cells; experiment: MTT assay; format: cell-based; conditions: Homo sapiens, U2OS, 120 h
[12] = system: Staphylococcus aureus Newman; experiment: Antimicrobial MIC determination, serial dilution in 96 well plates; format: cell-based; conditions: 24 h at 37 °C
[13] = system: Pichia anomala; experiment: as above; format: cell-based; conditions: Hansenula anomala
[14] = system: Huh-7.5 host cells; conditions: Huh-7.5 host cells in the antiviral assay
[15] = non-infected Huh 7.5 cells, 5 days at 37 °C
[16] = DSM10, 24 h at 37 °C, read-out: MIC
[17] = Homo sapiens, Huh7.5, 48 h at 33 °C

SMILES | MIC [1] | MIC [2] | Death rate at 0.5 μg/insect [3] | IC50 [4] | IC50 [5, 15] | MIC ([6]; 24 h at 37 °C) | MIC [6, 16] | IC50 [7, 17] | factor between cytotoxic activity (IC50 Huh-7.5) and antiviral activity (IC50 HCoV229E) [7] | MIC [8] | MIC [9] | MIC [10] | IC50 ([11]; 5 days at 37 °C) | MIC [12] | MIC [13] | also measured
CC(C)=CCC/C(C)=C/CC/C(C)=C/Cn1cnc2cc(C)c(C)cc21 [Sandacrabin D] | 64 µg/mL (≈ 183 µM) | > 64 µg/mL | 100% | 85 µM | 4.63 µM | 64 µg/mL (≈ 183 µM) | 64 µg/mL (≈ 183 µM) | 1.64 µM | 3–4 fold | > 64 µg/mL | > 64 µg/mL | > 64 µg/mL | 16.9 µM | 64 µg/mL (≈ 183 µM) | > 64 µg/mL | –
O=[N+]([O-])NC1=NCCN1Cc1ccc(Cl)nc1 [Imidacloprid, reference compound] | – | – | – | – | – | – | – | – | – | – | – | – | – | – | – | Death rate [3]: 100 (Imidacloprid) %; Death rate ([3]; listed as imidacloprid): 100%
COc1cccc2c1C(=O)c1c(O)c3c(c(O)c1C2=O)C[C@@](O)(C(=O)CO)C[C@@H]3O[C@H]1C[C@H](N)[C@H](O)[C@H](C)O1 [Doxorubicin, reference compound] | – | – | – | – | – | – | – | – | – | – | – | – | – | – | – | IC50 ([5]; positive control, Huh 7.5 cells, 5 days): 0.037 µM; IC50 ([11]; positive control, 5 days): 0.015 µM
CN[C@H](CC(C)C)C(=O)N[C@H]1C(=O)N[C@@H](CC(N)=O)C(=O)N[C@H]2C(=O)N[C@H]3C(=O)N[C@H](C(=O)N[C@H](C(=O)O)c4cc(O)cc(O)c4-c4cc3ccc4O)[C@H](O)c3ccc(c(Cl)c3)Oc3cc2cc(c3O[C@@H]2O[C@H](CO)[C@@H](O)[C@H](O)[C@H]2O[C@H]2C[C@](C)(N)[C@H](O)[C@H](C)O2)Oc2ccc(cc2Cl)[C@H]1O [Vancomycin, reference compound] | – | – | – | – | – | – | 0.1 to 0.2 µg/mL (≈ 0.069 to 0.138 µM) | – | – | – | – | – | – | – | – | –
CC(C)=CCC/C(C)=C/CC/C(C)=C/Cn1c(C)[n+](C/C=C(\C)CC/C=C(\C)CCC=C(C)C)c2cc(C)c(C)cc21 [Sandacrabin C] | > 64 µg/mL | > 64 µg/mL | 90% | 6.8 µM | 3.61 µM | 128 µg/mL | 128 µg/mL | 0.34 µM | 11 fold | > 64 µg/mL | > 64 µg/mL | > 64 µg/mL | 1.22 µM | 64 to 128 µg/mL | > 64 µg/mL | cytotoxic effects on host cells (in words) [14]: cytotoxic effects at the highest test concentration
CC(C)=CCC/C(C)=C/CC/C(C)=C/Cn1c[n+](C/C=C(\C)CC/C=C(\C)CCC=C(C)C)c2cc(C)c(C)cc21 [Sandacrabin B] | > 64 µg/mL | > 64 µg/mL | 100% | 3.5 µM | 0.7 µM | 64 µg/mL | 64 µg/mL | 0.18 µM | 3–4 fold | > 64 µg/mL | > 64 µg/mL | > 64 µg/mL | 0.51 µM | 64 to 128 µg/mL | > 64 µg/mL | cytotoxic effects on host cells (in words) [14]: cytotoxic effects at the highest test concentration
CC(C)=CCC/C(C)=C/CC/C(C)=C/Cn1c(/C=C(\C)CC/C=C(\C)CCC=C(C)C)nc2cc(C)c(C)cc21 [Sandacrabin A] | > 64 µg/mL | > 64 µg/mL | 10% | 108 µM | > 37 µM | 32 µg/mL (≈ 59.2 µM) | 32 µg/mL (≈ 59.2 µM) | > 10 µM | – | > 64 µg/mL | > 64 µg/mL | > 64 µg/mL | > 37 µM | 128 µg/mL (≈ 237 µM) | > 64 µg/mL | minimal insecticidal concentration ([3]; dilution series 5–0.05 μg per insect, test group of three insects): > 5 μg/insect; antiviral activity, effect on viral replication (in words) ([7]; cells infected with HCoV229E): did not show any effect on viral replication
CC(C)=CCC/C(C)=C/CC/C(C)=C/Cn1c(C)nc2cc(C)c(C)cc21 [Sandacrabin E] | 64 µg/mL (≈ 176 µM) | > 64 µg/mL | 90% | 43 µM | 6.72 µM | 64 µg/mL (≈ 176 µM) | 64 µg/mL (≈ 176 µM) | 1.91 µM | 3–4 fold | > 64 µg/mL | > 64 µg/mL | > 64 µg/mL | 13.7 µM | 64 µg/mL (≈ 176 µM) | > 64 µg/mL | –
CCC(CC)COC(=O)[C@H](C)N[P@](=O)(OC[C@H]1O[C@@](C#N)(c2ccc3c(N)ncnn23)[C@H](O)[C@@H]1O)Oc1ccccc1 [Remdesivir, reference compound] | – | – | – | – | – | – | – | – | – | – | – | – | – | – | – | IC50 ([7]; positive control, 48 h): 0.0056 µM
